# Reference: US6215002A, “Pyrrolopyrrolone derivatives as inhibitors of neutrophil elastase” (priority 1996, dated 2001)
# pIC50: −log10 of the molar value. Structures can show the parent of a compound that is named as a salt.
# Target: T1, human neutrophil elastase (Homo sapiens, UniProt P08246)
# T1 sequence (P08246 30-267): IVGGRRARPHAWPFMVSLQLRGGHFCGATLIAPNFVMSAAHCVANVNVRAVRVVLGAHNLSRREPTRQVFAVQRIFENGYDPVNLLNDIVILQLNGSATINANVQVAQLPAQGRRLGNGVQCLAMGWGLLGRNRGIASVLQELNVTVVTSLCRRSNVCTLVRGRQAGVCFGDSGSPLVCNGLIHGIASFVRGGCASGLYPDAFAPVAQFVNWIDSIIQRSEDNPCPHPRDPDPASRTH
# Assay: In vitro assay of human neutrophil elastase (HNE)
# Type: biochemical
# Details: 118 nM purified human neutrophil elastase, pH 8.6, 15 min incubation at 30° C., MeO-succinyl-alanyl-alanyl-prolyl-valyl-p-nitroanilide substrate; read-out: HNE IC50
# Procedure, shortened: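 Residual activity was taken as the 10 min rate of absorbance rise at 405 nm after adding 0.6 mM MeO-succinyl-AAPV-p-nitroanilide. Curve fitting of activity against concentration gave IC50.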
row,pIC50,Structure (SMILES)
1,6.38,"CCC[C@H]1C(=O)N(S(=O)(=O)CC(F)(F)F)[C@H]2CCN(C(=O)CCN3CCCCC3)[C@H]12 (relative stereo) [Example 164, rel-(3R,3aR,6aS)-4-(3-Piperidin-1-yl-propionyl)-3-propyl-1-(2,2,2-trifluoro-ethanesulfonyl)-hexahydro-pyrrolo[3,2-b]pyrrol-2-one DL-tartrate]"
2,7.07,"CCC[C@H]1C(=O)N(S(=O)(=O)CC)[C@H]2CCN(S(=O)(=O)CCCN3CCCCC3)[C@H]12 (relative stereo) [Example 165, rel-(3R,3aR,6aS)-1-Ethanesulfonyl-4-(3-piperidin-1-yl-propane-1-sulfonyl)-3-propyl-hexahydro-pyrrolo[3,2-b]pyrrol-2-one DL-tartrate]"
3,6.54,"CCC[C@H]1C(=O)N(S(=O)(=O)C(C)C)[C@H]2CCN(S(=O)(=O)CCCN3CCCCC3)[C@H]12 (relative stereo) [Example 166, rel-(3R,3aR,6aS)-4-(3-Piperidin-1-yl-propane-1-sulfonyl)-1-(propane-2-sulfonyl)-3-propyl-hexahydro-pyrrolo[3,2-b]pyrrol-2-one DL-tartrate]"
4,7.42,"CCCCS(=O)(=O)N1C(=O)[C@H](CCC)[C@@H]2[C@@H]1CCN2S(=O)(=O)CCCN1CCCCC1 (relative stereo) [Example 167, rel-(3R,3aR,6aS)-1-(Butane-1-sulfonyl)-4-(3-piperidin-1-yl-propane-1-sulfonyl)-3-propyl-hexahydro-pyrrolo[3,2-b]pyrrol-2-one DL-tartrate]"
5,6.68,"CCC[C@H]1C(=O)N(S(=O)(=O)c2cccc3nsnc23)[C@H]2CCN(C(=O)CCN3CCCCC3)[C@H]12 (relative stereo) [Example 168, rel-(3R,3aR,6aS)-1-(Benzo[1,2,5]thiadiazole-4-sulfonyl)-4-(3-piperidin-1-yl-propionyl)-3-propyl-hexahydro-pyrrolo[3,2-b]pyrrol-2-one DL-tartrate]"
6,7.54,"CCC[C@H]1C(=O)N(S(=O)(=O)c2cccs2)[C@H]2CCN(C(=O)CCCCCN3CCCCC3)[C@H]12 (relative stereo) [Example 169, rel-(3R,3aR,6aS)-4-(6-Piperidin-1-yl-hexanoyl)-3-propyl-1-(thiophene-2-sulfonyl)-hexahydro-pyrrolo[3,2-b]pyrrol-2-one DL-tartrate]"
7,6.74,"CCC[C@H]1C(=O)N(S(=O)(=O)c2c(C)noc2C)[C@H]2CCN(C(=O)CCN3CCCCC3)[C@H]12 (relative stereo) [Example 170, rel-(3R,3aR,6aS)-1-(3,5-Dimethyl-isoxazole-4-sulfonyl)-4-(3-piperidin-1-yl-propionyl)-3-propyl-hexahydro-pyrrol[3,2-b]pyrrol-2-one DL-tartrate]"
8,7.41,"CCC[C@H]1C(=O)N(S(=O)(=O)c2ccccn2)[C@H]2CCN(C(=O)CCN3CCCCC3)[C@H]12 (relative stereo) [Example 171, rel-(3R,3aR,6aS)-4-(3-Piperidin-1-yl-propionyl)-3-propyl-1-(pyridine-2-sulfonyl)-hexahydro-pyrrolo[3,2-b]pyrrol-2-one hydrochloride]"
9,7.16,"CCC[C@H]1C(=O)N(S(=O)(=O)c2cccnc2)[C@H]2CCN(C(=O)CCN3CCCCC3)[C@H]12 (relative stereo) [Example 172, rel-(3R,3aR,6aS)-4-(3-Piperidin-1-yl-propionyl)-3-propyl-1-(pyridine-3-sulfonyl)-hexahydro-pyrrolo[3,2-b]pyrrol-2-one dihydrochloride]"
10,7.22,"CCC[C@H]1C(=O)N(S(C)(=O)=O)[C@H]2CCN(S(=O)(=O)c3ccc(CN4CCCCC4)cc3)[C@H]12 (relative stereo) [Example 194, rel-(3R,3aR,6aS)-1-Methanesulfonyl-4-(4-piperidin-1-ylmethyl-benzenesulfonyl)-3-propyl-hexahydro-pyrrolo[3,2-b]pyrrol-2-one hydrochloride]"
11,7.17,"CCC[C@H]1C(=O)N(S(C)(=O)=O)[C@H]2CCN(S(=O)(=O)c3ccc(CN4CCCCCC4)cc3)[C@H]12 (relative stereo) [Example 195, rel-(3R,3aR,6aS)-4-(4-Azepin-1-ylmethyl-benzenesulfonyl)-1-methanesulfonyl-3-propyl-hexahydro-pyrrolo[3,2-b]pyrrol-2-one hydrochloride]"
12,7.47,"CCC[C@H]1C(=O)N(S(C)(=O)=O)[C@H]2CCN(S(=O)(=O)c3ccc(CN(C)C)cc3)[C@H]12 (relative stereo) [Example 196, rel-(3R,3aR,6aS)-4-(4-Dimethylaminomethyl-benzenesulfonyl)-1-methanesulfonyl-3-propyl-hexahydro-pyrrolo[3,2-b]pyrrol-2-one hydrochloride]"
13,6.82,"CC(C)[C@H]1C(=O)N(S(C)(=O)=O)[C@H]2CCN(S(=O)(=O)c3ccc(CN(C)C)cc3)[C@H]12 (relative stereo) [Example 197, rel-(3R,3aR,6aS)-4-(4-Dimethylaminomethyl-benzenesulfonyl)-3-isopropyl-1-methanesulfonyl-hexahydro-pyrrolo[3,2-b]pyrrol-2-one hydrochloride]"
14,6.90,"CC(C)[C@H]1C(=O)N(S(C)(=O)=O)[C@H]2CCN(S(=O)(=O)c3ccc(CN4CCCCC4)cc3)[C@H]12 (relative stereo) [Example 198, rel-(3R,3aR,6aS)-3-Isopropyl-1-methanesulfonyl-(4-piperidin-1-ylmethyl-benzenesulfonyl)-hexahydro-pyrrolo[3,2-b]pyrrol-2-one hydrochloride]"
15,7.00,"CC(C)[C@H]1C(=O)N(S(C)(=O)=O)[C@H]2CCN(S(=O)(=O)c3ccc(CN4CCCCCC4)cc3)[C@H]12 (relative stereo) [Example 199, rel-(3R,3aR,6aS)-4-(4-Azepin-1-ylmethyl-benzenesulfonyl)-3-isopropyl-1-methanesulfonyl-hexahydro-pyrrolo[3,2-b]pyrrol-2-one hydrochloride]"
16,7.42,"CCC[C@H]1C(=O)N(S(=O)(=O)c2ccc(C(F)(F)F)cc2)[C@H]2CCN(C(=O)CCCCCN3CCCCC3)[C@H]12 (relative stereo) [Example 202, rel-(3R,3aR,6aS)-4-(6-Piperidin-1-yl-hexanoyl)-3-propyl-1-(4-trifluoromethyl-benzenesulfonyl)-hexahydro-pyrrolo[3,2-b]pyrrol-2-one DL-tartrate]"
17,7.42,"CCC[C@H]1C(=O)N(S(=O)(=O)c2ccc([N+](=O)[O-])cc2)[C@H]2CCN(C(=O)CCCCCN3CCCCC3)[C@H]12 (relative stereo) [Example 203, rel-(3R,3aR,6aS)-1-(4-Nitro-benzenesulfonyl)-4-(6-piperidin-1-yl-hexanoyl)-3-propyl-hexahydro-pyrrolo[3,2-b]pyrrol-2-one DL-tartrate]"
18,7.55,"CCC[C@H]1C(=O)N(S(=O)(=O)c2ccc(C#N)cc2)[C@H]2CCN(C(=O)CCCCCN3CCCCC3)[C@H]12 (relative stereo) [Example 205, rel-4-[2-Oxo-4-(6-piperidin-1-yl-hexanoyl)-3R-propyl-hexahydro-(3aR,6aS)-pyrrolo[3,2-b]pyrrole-1-sulfonyl]-benzonitrile DL-tartrate]"
19,7.06,"CCC[C@H]1C(=O)N(S(=O)(=O)c2ccccc2)[C@H]2CCN(C(=O)CCCCCN3CCCCC3)[C@H]12 (relative stereo) [Example 206, rel-(3R,3aR,6aS)-1-Benzenesulfonyl-4-(6-piperidin-1-yl-hexanoyl)-3-propyl-hexahydro-pyrrol[3,2-b]pyrrol-2-one DL-tartrate]"
20,7.42,"CCC[C@H]1C(=O)N(S(=O)(=O)c2ccc(Cl)cc2)[C@H]2CCN(C(=O)CCCCCN3CCCCC3)[C@H]12 (relative stereo) [Example 207, rel-(3R,3aR,6aS)-1-(4-Chloro-benzenesulfonyl)-4-(6-piperidin-1-yl-hexanoyl)-3-propyl-hexahydro-pyrrolo[3,2-b]pyrrol-2-one DL-tartrate]"
21,7.27,"CCC[C@H]1C(=O)N(S(=O)(=O)c2ccccc2)[C@H]2CCN(S(=O)(=O)CCCN3CCCCC3)[C@H]12 (relative stereo) [Example 208, rel-(3R,3aR,6aS)-1-Benzenesulfonyl-4-(3-piperidin-1-yl-propane-1-sulfonyl)-3-propyl-hexahydro-pyrrolo[3,2-b]pyrrol-2-one DL-tartrate]"
22,7.15,"CCC[C@H]1C(=O)N(S(=O)(=O)c2ccc(N)cc2)[C@H]2CCN(C(=O)CCCCCN3CCCCC3)[C@H]12 (relative stereo) [Example 209, rel-(3R,3aR,6aS)-1-(4-Amino-benzenesulfonyl)-4-(6-piperidin-1-yl-hexanoyl)-3-propyl-hexahydro-pyrrolo[3,2-b]pyrrol-2-one DL-tartrate]"
23,6.99,"CC(=O)Nc1ccc(S(=O)(=O)N2CC[C@H]3[C@H]2[C@@H](C(C)C)C(=O)N3S(C)(=O)=O)cc1 (relative stereo) [Example 210, rel-N-[4-(6R-Isopropyl-4-methanesufonyl-5-oxo-hexahydro-(3aS,6aR)-pyrrolo[3,2-b]pyrrole-1-sulfonyl)-phenyl]-acetamide]"
24,6.85,"CCC[C@H]1C(=O)N(S(C)(=O)=O)[C@H]2CCN(S(=O)(=O)c3ccc([N+](=O)[O-])cc3)[C@H]12 (relative stereo) [Example 211, rel-(3R,3aR,6aS)-1-Methanesulfonyl-4-(4-nitro-benzenesulfonyl)-3-propyl-hexahydro-pyrrolo[3,2-b]pyrrol-2-one]"

row,Structure (SMILES),pIC50
1,"CCCCOc1ccc(S(=O)(=O)N2C(=O)[C@H](CCC)[C@@H]3[C@@H]2CCN3C(=O)CCCCCN2CCCCC2)cc1 (relative stereo) [Example 204, rel-(3R,3aR,6aS)-1-(4-Butoxy-benzenesulfonyl)-4-(6-piperidin-1-yl-hexanoyl)-3-propyl-hexahydro-pyrrolo[3,2-b]pyrrol-2-one DL-tartrate]",7.01
